Measured values from publication PMC12541554, “Production of the Antimicrobial Roseoflavin With Genetically Engineered Corynebacterium glutamicum” (Microbial Biotechnology, 2025).

Legend:
RibF^Sda = biological target: T1, RibF^Sda (Streptomyces davaonensis, UniProt K4R340); assay: fluorescent ADP detection kinase assay, crude extract; assay type: biochemical; settings: ATP co-substrate; crude extract of overexpressing C. glutamicum with native RibF background; 10 min
T1 construct: gene ribC1; overexpressed from pVWEx1 in C. glutamicum wild type; crude extract (host's native RibF also present)
T1 sequence (K4R340 1-319): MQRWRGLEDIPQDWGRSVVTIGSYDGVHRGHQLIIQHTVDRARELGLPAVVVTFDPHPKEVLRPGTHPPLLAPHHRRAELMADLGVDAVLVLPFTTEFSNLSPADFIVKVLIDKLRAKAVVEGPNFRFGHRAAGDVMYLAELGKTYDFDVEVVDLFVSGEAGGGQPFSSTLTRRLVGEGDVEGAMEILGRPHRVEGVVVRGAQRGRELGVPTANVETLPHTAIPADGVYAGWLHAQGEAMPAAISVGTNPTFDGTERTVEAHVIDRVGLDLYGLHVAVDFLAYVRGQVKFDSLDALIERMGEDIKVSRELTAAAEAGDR

RibF^Cg = biological target: T2, RibF^Cg (Corynebacterium glutamicum, UniProt Q8NP47); assay: as above; assay type: biochemical; settings: ATP co-substrate; crude extract of overexpressing C. glutamicum; 10 min
T2 construct: gene Cgl1978; overexpressed from pVWEx1 in C. glutamicum wild type; crude extract
T2 sequence (Q8NP47 1-341): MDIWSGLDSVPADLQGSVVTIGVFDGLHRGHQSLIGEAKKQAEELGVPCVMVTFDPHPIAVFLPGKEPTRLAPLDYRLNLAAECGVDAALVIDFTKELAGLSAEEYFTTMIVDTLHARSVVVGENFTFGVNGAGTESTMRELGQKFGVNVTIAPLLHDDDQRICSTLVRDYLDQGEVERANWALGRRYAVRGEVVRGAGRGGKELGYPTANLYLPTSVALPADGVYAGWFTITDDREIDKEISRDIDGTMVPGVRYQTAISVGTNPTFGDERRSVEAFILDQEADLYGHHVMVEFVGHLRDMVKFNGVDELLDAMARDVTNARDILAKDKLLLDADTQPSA

SMILES | fluorescent ADP detection kinase assay, crude extract (RibF^Sda) | fluorescent ADP detection kinase assay, crude extract (RibF^Cg)
Cc1cc2nc3c(=O)[nH]c(=O)nc-3n(C[C@H](O)[C@H](O)[C@H](O)CO)c2cc1C [riboflavin] | RibF^Sda also showed lower kinase activity in the presence of RF | overexpression of both ribF genes resulted in kinase activity when RF or RoF was added
Cc1cc2nc3c(=O)[nH]c(=O)nc-3n(C[C@H](O)[C@H](O)[C@H](O)CO)c2cc1N(C)C [roseoflavin] | activity of RibF^Sda was significantly lower in the presence of RoF | overexpression of both ribF genes resulted in kinase activity when RF or RoF was added
